Measurements published in PubChem BioAssay (NCI).
“And” between values parts separate entries of the source, which are not always exact repeats. Equal entries are not always repeated.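 The compound was tested at five concentrations on cells cultured in 96-well plates, with a 48-hour exposure period. The concentration for 50% growth inhibition is given as GI50. TGI denotes the concentration required for complete inhibition of growth.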

Experiments:
Test in all cases: NCI tumour cell line growth inhibition, 48 h
MDA-N = test system: MDA-N
DMS 114 small cell lung = test system: DMS 114 small cell lung
P388/ADR leukemia = test system: P388/ADR leukemia
NCI/ADR-RES ovarian = test system: NCI/ADR-RES ovarian
HOP-18 NSCLC = test system: HOP-18 NSCLC
P388 leukemia = test system: P388 leukemia
RXF-631 renal = test system: RXF-631 renal
KM20L2 colon = test system: KM20L2 colon
DLD-1 colon = test system: DLD-1 colon
MCF7 breast = test system: MCF7 breast
LXFL 529 NSCLC = test system: LXFL 529 NSCLC

Row | Structure (SMILES) | GI50 (MDA-N) | TGI (MDA-N) | GI50 (DMS 114 small cell lung) | TGI (DMS 114 small cell lung) | TGI (P388/ADR leukemia) | GI50 (NCI/ADR-RES ovarian) | TGI (NCI/ADR-RES ovarian) | GI50 (HOP-18 NSCLC) | TGI (HOP-18 NSCLC) | TGI (P388 leukemia) | GI50 (RXF-631 renal) | TGI (RXF-631 renal) | GI50 (KM20L2 colon) | TGI (KM20L2 colon) | GI50 (DLD-1 colon) | TGI (DLD-1 colon) | TGI (MCF7 breast) | GI50 (LXFL 529 NSCLC) | TGI (LXFL 529 NSCLC)
1 | O=C(O)CCCc1ccc(N(CCCl)CCCl)cc1 | 194 µM | 271 µM and 325 µM | 7.84 µM | 32.4 µM and 179 µM | 154 µM | 39.4 µM | 329 µM and 118 µM | 17.7 µM | > 70 µM and 267 µM | 135 µM | 19.7 µM | 47.7 µM and 277 µM | 27.8 µM | 60.9 µM and 379 µM | 24.3 µM | 54.8 µM and 280 µM | 379 µM and 431 µM | 19.5 µM | 35.4 µM and 199 µM
2 | COc1cc2c(c(O)c1C)C(=O)C(Cl)=CC2=O | – | 12.1 µM | – | 32.8 µM | – | – | 66.7 µM | – | 30.1 µM | – | – | 17.6 µM | – | 49.1 µM | – | 48.5 µM | 15.8 µM | – | 19.4 µM
3 | CC1(C)N=C(N)N=C(N)N1c1ccc(CCCCc2ccc(S(=O)(=O)F)cc2Cl)c(Cl)c1 | – | 39.5 µM | – | 16.4 µM | 7.56 µM | – | 347 µM | – | 121 µM | 6.36 µM | – | – | – | 163 µM | – | 118 µM | 28.7 µM | – | –
4 | CN(C)CCNC(=O)c1cccc2nc3c(Cl)cccc3nc12 | – | – | – | 12.1 µM | – | – | – | – | > 88 µM | – | – | > 100 µM | – | 32.2 µM | – | 42.2 µM | – | – | > 49.5 µM
5 | CN1CCCNCCN(CCc2ccccn2)CCCN(C)CC1 | – | – | – | > 58.2 µM | – | – | – | – | > 100 µM | – | – | > 100 µM | – | > 100 µM | – | > 100 µM | – | – | > 100 µM
6 | CCC1CCC2CCCC(C)N12 (centres undefined) | – | – | – | > 100 µM | – | – | – | – | > 100 µM | – | – | > 100 µM | – | > 100 µM | – | > 100 µM | – | – | > 100 µM
7 | CC(C)(C)C1=NC(S)NC(CCC(=O)Nc2ccccc2[N+](=O)[O-])=C1 (centres undefined) | – | – | – | > 100 µM | – | – | – | – | > 100 µM | – | – | > 100 µM | – | > 100 µM | – | > 100 µM | – | – | > 100 µM
8 | O=C(O/N=C1/CCC/C1=C\c1ccccc1)c1ccc([N+](=O)[O-])cc1 | – | – | – | > 100 µM | – | – | – | – | > 100 µM | – | – | > 100 µM | – | > 100 µM | – | > 100 µM | – | – | > 100 µM
9 | O=C(Nc1ccccc1[N+](=O)[O-])c1ccccc1 | – | – | – | > 100 µM | – | – | – | – | > 100 µM | – | – | > 100 µM | – | > 100 µM | – | > 100 µM | – | – | > 100 µM
10 | C[Si](C)(C)c1ccc(CC2(Cc3ccc([Si](C)(C)C)cc3)CCNC2)cc1 | – | – | – | 3.87 µM | – | – | – | – | 9.12 µM | – | – | 5.36 µM | – | 3.93 µM | – | 6.87 µM | – | – | 4.79 µM
